Data taken from ChEMBL document CHEMBL1201862, “PubChem BioAssay data set” (2004).
Activity calls are given as the source filed them.

Tests used:
Cytochrome P450 2C9 = Cytochrome P450 2C9 (Homo sapiens, UniProt P11712)
Cytochrome P450 3A4 = Cytochrome P450 3A4 (Homo sapiens, UniProt P08684);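 note: CYP3A4 tested as one member of a cytochrome P450 panel screen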
[1] = molecular target: T1, Heat shock factor protein 1 (Mus musculus, UniProt P38532); test: decrease of HSF1-responsive luciferase luminescence – cell-based, NIH3T3, dose retest, confirmation (AID 2382); type: functional;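 note: NIH3T3 fibroblasts with HSF1-driven luciferase reporter stressed by proteasome inhibitor MG132; luminescence from HSF1-driven luciferase expression after 8 hours of MG132 stress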
T1 sequence (P38532 whole entry): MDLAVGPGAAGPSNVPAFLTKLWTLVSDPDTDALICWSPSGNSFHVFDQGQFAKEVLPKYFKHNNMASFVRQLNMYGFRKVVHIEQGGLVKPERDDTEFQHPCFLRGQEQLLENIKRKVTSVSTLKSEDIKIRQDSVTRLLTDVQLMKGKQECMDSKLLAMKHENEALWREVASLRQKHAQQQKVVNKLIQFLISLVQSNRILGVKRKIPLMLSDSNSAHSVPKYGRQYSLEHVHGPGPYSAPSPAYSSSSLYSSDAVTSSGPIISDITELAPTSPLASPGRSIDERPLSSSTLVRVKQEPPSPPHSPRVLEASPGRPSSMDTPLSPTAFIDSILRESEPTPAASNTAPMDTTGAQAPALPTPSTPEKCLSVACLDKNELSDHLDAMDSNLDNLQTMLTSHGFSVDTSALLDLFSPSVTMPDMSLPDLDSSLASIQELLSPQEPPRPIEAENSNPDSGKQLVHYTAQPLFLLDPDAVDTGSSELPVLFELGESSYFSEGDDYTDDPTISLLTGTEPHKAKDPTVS

[2] = molecular target: T2, Rac GTPase-activating protein 1 (Homo sapiens, UniProt Q9H0H5); test: blockers of MgcRacGAP-driven Rac1 GTP hydrolysis – biochemical, ADP Hunter fluorescence, primary and confirmatory, confirmation (AID 624330); type: functional
T2 sequence (Q9H0H5 whole entry): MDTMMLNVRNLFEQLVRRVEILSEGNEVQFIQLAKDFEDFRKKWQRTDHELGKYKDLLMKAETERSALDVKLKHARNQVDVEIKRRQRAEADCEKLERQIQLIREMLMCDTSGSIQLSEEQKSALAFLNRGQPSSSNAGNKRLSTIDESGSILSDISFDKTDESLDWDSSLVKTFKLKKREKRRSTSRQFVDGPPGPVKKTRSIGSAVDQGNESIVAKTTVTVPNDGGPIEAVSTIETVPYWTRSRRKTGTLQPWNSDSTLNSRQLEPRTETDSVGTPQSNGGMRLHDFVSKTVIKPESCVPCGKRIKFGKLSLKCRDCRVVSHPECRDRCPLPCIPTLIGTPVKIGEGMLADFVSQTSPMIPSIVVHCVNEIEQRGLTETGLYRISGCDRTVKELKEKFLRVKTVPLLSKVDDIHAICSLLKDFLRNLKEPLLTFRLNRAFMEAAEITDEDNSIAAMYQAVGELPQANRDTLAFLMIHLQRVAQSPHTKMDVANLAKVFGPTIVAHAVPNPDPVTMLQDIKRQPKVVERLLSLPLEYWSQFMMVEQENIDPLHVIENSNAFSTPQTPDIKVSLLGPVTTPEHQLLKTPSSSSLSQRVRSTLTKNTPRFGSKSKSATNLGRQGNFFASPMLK

[3] = molecular target: T1, Heat shock factor protein 1; test: enhancement of HSF1-driven luciferase signal – cell-based, NIH3T3, luminescence, dose retest, confirmation (AID 435004); type: functional;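 note: stress induced by proteasome inhibitor MG132 added 30 min after compound; luciferase reporter driven by HSF1 response element in NIH3T3 cells; actives raise luminescence as potentiators of the MG132 stress response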
[4] = molecular target: T3, Corticotropin-releasing factor receptor 2/Corticotropin-releasing factor-binding protein (Homo sapiens, UniProt P24387+Q13324); test: activators of CRF receptor 2 with binding protein – uHTS hits, confirmation (AID 602473); type: functional; conditions: read-out: EC50_Mean
T3 sequence (Q13324 whole entry): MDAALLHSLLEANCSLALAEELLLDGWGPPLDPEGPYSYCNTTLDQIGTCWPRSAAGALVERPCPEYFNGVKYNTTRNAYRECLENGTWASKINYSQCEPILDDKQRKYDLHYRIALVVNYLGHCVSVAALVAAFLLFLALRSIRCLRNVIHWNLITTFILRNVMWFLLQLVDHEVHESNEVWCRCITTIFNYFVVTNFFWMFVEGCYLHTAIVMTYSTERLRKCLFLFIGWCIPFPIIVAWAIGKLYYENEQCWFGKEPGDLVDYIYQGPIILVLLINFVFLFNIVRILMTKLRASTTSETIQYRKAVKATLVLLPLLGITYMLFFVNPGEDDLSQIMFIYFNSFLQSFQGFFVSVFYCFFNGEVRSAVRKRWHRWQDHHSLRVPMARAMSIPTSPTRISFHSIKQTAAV
T3 sequence (P24387 whole entry): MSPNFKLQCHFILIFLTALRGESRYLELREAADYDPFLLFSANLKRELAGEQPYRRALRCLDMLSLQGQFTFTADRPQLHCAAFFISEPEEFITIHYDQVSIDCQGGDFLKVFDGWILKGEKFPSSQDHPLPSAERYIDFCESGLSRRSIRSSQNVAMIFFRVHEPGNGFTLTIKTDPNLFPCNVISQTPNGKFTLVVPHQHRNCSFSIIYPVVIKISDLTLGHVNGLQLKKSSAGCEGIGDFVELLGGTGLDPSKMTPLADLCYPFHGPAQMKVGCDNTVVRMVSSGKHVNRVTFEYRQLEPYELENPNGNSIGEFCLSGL

[5] = molecular target: T3, Corticotropin-releasing factor receptor 2/Corticotropin-releasing factor-binding protein; test: Dose Response confirmation of uHTS hits for small molecule antagonists of the CRF-binding protein and CRF-R2 receptor complex.; type: functional; conditions: read-out: IC50_Mean
Cytochrome P450 2C19 = Cytochrome P450 2C19 (Homo sapiens, UniProt P33261); test: Cytochrome panel assay with activity outcomes. Panel member name: p450-cyp2c19 Compounds with AC50 equal or less than 10 uM are considered active; type: functional; conditions: read-out: AC50
H4 = test: Luminescence Cell-Based Dose Response HTS to Identify Activators of 5'UTR Stem-Loop Driven Prion Protein mRNA Translation in H4 Neuroglioblastoma Cells. [Related pubchem assays: 1829 (Project Summary), 1814 (Primary HTS)]; type: functional; conditions: Homo sapiens
[6] = Luminescence Cell-Based Dose Confirmation HTS to Identify Activators of 5'UTR Stem-Loop Driven Alpha-Synuclein mRNA Translation in H4 Neuroglioblastoma Cells. [Related pubchem assays: 1829 (Project Summary), 1814 (Primary HTS)]; type: functional
[7] = Luminescence Cell-Based Dose Response HTS to Identify Activators of Luciferase Translation or Activity in H4 […] Cells. [Related pubchem assays: 1829 (Project Summary), 1814 (Primary HTS)]; type: functional
Cytochrome P450 1A2 = molecular target: T4, Cytochrome P450 1A2 (Homo sapiens, UniProt P05177);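 note: PubChem cytochrome P450 panel assay, CYP1A2 panel member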
T4 sequence (P05177 whole entry): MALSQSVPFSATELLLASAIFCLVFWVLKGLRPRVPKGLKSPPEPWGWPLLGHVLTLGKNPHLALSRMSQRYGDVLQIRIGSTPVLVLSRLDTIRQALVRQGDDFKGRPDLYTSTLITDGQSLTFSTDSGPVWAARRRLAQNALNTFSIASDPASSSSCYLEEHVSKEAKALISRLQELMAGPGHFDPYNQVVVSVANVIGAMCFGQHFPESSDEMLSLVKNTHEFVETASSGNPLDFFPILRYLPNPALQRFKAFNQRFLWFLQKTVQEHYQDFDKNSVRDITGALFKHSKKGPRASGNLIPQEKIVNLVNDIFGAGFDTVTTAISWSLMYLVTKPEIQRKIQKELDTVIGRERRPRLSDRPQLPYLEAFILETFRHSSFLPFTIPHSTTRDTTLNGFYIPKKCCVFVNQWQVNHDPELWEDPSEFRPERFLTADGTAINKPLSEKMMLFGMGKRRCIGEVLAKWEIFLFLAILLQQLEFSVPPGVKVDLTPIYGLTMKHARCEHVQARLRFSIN

Sequence of Cytochrome P450 3A4 (P08684 whole entry): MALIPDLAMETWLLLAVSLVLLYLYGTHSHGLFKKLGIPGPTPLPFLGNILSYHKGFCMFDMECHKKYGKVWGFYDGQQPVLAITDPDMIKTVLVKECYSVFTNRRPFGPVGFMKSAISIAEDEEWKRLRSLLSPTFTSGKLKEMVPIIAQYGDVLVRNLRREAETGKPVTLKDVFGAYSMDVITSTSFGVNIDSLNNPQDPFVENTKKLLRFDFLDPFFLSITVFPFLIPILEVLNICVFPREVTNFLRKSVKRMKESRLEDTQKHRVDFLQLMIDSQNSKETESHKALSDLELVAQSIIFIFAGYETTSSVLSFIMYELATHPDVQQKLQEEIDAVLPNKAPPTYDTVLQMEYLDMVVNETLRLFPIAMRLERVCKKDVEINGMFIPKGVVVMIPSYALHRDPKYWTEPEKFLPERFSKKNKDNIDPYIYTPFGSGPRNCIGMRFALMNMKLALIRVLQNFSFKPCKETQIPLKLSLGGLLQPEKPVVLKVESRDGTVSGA
Sequence of Cytochrome P450 2C9 (P11712 whole entry): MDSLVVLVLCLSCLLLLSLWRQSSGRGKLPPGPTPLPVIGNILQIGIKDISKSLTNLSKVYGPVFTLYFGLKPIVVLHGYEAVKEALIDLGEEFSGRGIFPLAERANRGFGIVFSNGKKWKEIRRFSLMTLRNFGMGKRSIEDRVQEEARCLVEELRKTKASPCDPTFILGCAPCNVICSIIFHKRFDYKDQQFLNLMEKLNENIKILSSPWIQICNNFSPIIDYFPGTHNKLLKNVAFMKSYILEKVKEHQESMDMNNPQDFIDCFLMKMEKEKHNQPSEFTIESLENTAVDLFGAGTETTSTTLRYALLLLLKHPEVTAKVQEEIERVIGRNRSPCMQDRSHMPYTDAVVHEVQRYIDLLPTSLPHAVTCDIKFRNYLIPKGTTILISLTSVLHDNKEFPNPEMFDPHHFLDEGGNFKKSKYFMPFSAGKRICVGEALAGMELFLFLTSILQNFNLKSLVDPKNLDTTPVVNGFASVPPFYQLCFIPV
Sequence of Cytochrome P450 2C19 (P33261 whole entry): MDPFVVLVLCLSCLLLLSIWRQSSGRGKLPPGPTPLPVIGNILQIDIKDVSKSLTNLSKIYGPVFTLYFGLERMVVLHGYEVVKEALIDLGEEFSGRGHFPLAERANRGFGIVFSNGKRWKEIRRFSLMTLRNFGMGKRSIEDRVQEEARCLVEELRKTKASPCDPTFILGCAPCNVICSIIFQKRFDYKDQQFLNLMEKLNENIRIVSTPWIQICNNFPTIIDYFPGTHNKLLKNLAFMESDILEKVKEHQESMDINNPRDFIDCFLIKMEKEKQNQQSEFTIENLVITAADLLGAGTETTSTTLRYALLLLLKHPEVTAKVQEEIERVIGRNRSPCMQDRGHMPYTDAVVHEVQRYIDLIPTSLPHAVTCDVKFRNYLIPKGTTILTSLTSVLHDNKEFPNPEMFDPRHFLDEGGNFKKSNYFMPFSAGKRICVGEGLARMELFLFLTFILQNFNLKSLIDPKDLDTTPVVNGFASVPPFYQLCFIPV

COc1ccc(CCn2c3c(c(=O)[nH]c2=O)C(NC(=O)c2cccs2)(C(F)(F)F)C(=O)N3)cc1OC (stereo not drawn)
AC50 (Cytochrome P450 2C9): 8.91 µM (inconclusive) | AC50 (Cytochrome P450 3A4): 14.1 µM (inconclusive)

CN(C)c1ccc(C2Nc3ccccc3C(=O)N2CCCN2CCOCC2)cc1 (stereo not drawn)
EC50 [1]: 2.02 µM (active)

COC(=O)c1ccc(N2CCN(C(C)=O)CC2)c(NC(=O)COc2ccccc2C)c1
EC50 [1]: > 195 µM (not active)

Fc1ccc(CNCc2ccccc2Cl)cc1
EC50 [1]: > 195 µM (not active) | IC50 [2]: 213 µM (active)

CC(C)(C)CC(C)(C)c1cc(O)c(O)c(CN2CCCCC2)c1
AC50 (Cytochrome P450 2C9): 7.94 µM (inconclusive) | AC50 (Cytochrome P450 3A4): 3.98 µM (inconclusive)

CCOC(=O)CNC(=O)CSc1nnc(C)c(O)n1
EC50 [1]: > 195 µM (not active)

C=CCSc1nc2ccccc2c(=O)n1Cc1ccco1
AC50 (Cytochrome P450 2C9): 3.98 µM (inconclusive)

CCN(C(=O)Cn1c([N+](=O)[O-])cnc1C)c1ccccc1
EC50 [1]: > 195 µM (not active)

CCOc1ccc(CN(CCCl)CCCl)cc1C(=O)OC
EC50 [3]: 12.6 µM (active)

CCOc1ccc(-n2cc(C(=O)NCc3ccco3)c3cc(OC)c(OC)cc3c2=O)cc1
AC50 (Cytochrome P450 2C9): 4.47 µM (inconclusive) | AC50 (Cytochrome P450 3A4): 22.4 µM (inconclusive)

CC(C)c1ccccc1-n1c(S)nnc1-c1cccnc1
EC50 [1]: > 195 µM (not active)

COc1ccc(N2CCN(CCCNC(=O)C(=O)c3c(C)[nH]c4ccccc34)CC2)cc1
EC50 [4]: > 53 µM (inactive) | IC50 [5]: > 47.1 µM (inactive)

Cc1noc(C)c1COC(=O)c1cccc(S(=O)(=O)N2c3ccccc3CC2C)c1 (stereo not drawn)
EC50 [4]: > 53 µM (inactive) | IC50 [5]: > 47.1 µM (inactive)

COc1ccc(N2CCN(CC(O)COCCOc3ccc(Br)cc3)CC2)cc1 (stereo not drawn)
EC50 [1]: > 195 µM (not active)

O=C(Nc1ccccc1C(=O)N1CCOCC1)c1ccncc1
EC50 [4]: > 53 µM (inactive) | IC50 [5]: > 47.1 µM (inactive)

C=CCN=C(S)Nc1ccc2nc(C)c(C)nc2c1
AC50 (Cytochrome P450 2C9): 12.6 µM (inconclusive)

COC(=O)C1=CN(Cc2ccc(OC)c(OC)c2)C=C(C(=O)OC)C1c1ccccc1F
EC50 [1]: > 195 µM (not active)

Cc1nc2cnc(N3CCOCC3)nc2n(Cc2ccc(F)cc2)c1=O
AC50 (Cytochrome P450 2C9): 31.6 µM (inconclusive)

CCCCN(CC)S(=O)(=O)N1CCC(C(=O)NCCCN2CCOCC2)CC1
AC50 (Cytochrome P450 2C19): 1 µM (inconclusive) | AC50 (Cytochrome P450 2C9): 25.1 µM (inconclusive)

COc1ccc(NC(=O)C2c3cc(OC)c(OC)cc3C(=O)N(C)C2c2cccnc2)cc1OC (stereo not drawn)
AC50 (Cytochrome P450 2C9): 17.8 µM (inconclusive)

CC(C)N1C(=O)CN(C2CCCCCC2)C(=O)C1c1ccccc1F (stereo not drawn)
EC50 [1]: 77.6 µM (active) | EC50 (H4): 21 µM (active) | EC50 [6]: 10.8 µM (active) | EC50 [7]: 20.9 µM (active)

O=C(CN1CCCCC1)Nc1cccc2c1OCO2
EC50 [1]: > 195 µM (not active)

Cc1ccc(F)c(NC(=O)c2ccc(Cn3cc(Cl)cn3)cc2)c1
EC50 [1]: > 195 µM (not active)

Cc1cc(/C=C(/C#N)C(=O)O)c(C)n1-c1cccc2ccccc12
EC50 [4]: > 53 µM (inactive) | IC50 [5]: 6.86 µM (active)

Cc1cccc(C)c1NC(=O)c1sccc1SCc1cccc(C(F)(F)F)c1
EC50 [4]: > 53 µM (inactive) | IC50 [5]: > 47.1 µM (inactive)

Cc1ccc(OCC(=O)NC(=S)Nc2ccccn2)c(Br)c1
EC50 [1]: < 0.16 µM (active)

CC1C(=O)C(C)C(c2ccco2)NC1c1ccco1 (stereo not drawn)
EC50 [1]: > 195 µM (not active)

O=C(CSc1ccc(-c2ccncc2)nn1)N1CCN(c2ccccc2)CC1
EC50 [4]: > 53 µM (inactive) | IC50 [5]: > 47.1 µM (inactive)

COc1ccc(-c2cn(-c3ccccc3)nc2CO)cc1
EC50 [1]: > 195 µM (not active)

O=C(OCc1ccc2c(c1)OCO2)c1ccc(S(=O)(=O)N2CCCC2)cc1
EC50 [4]: > 53 µM (inactive) | IC50 [5]: > 47.1 µM (inactive)

CCC[C@@H]1C[C@@]1(CCC)C(NC(=O)OCc1ccccc1)c1ccc(-c2ccccc2)cc1 (stereo partly drawn)
AC50 (Cytochrome P450 2C9): 3.98 µM (inconclusive) | AC50 (Cytochrome P450 3A4): 3.98 µM (inconclusive)

COC(=O)[C@@]1(Cc2ccc(OC)cc2)[C@H]2c3cc(C(=O)N(C)C)n(CCSCCO)c3C[C@H]2CN1C(=O)c1ccccc1
AC50 (Cytochrome P450 2C19): 20 µM (inconclusive) | AC50 (Cytochrome P450 2C9): 12.6 µM (inconclusive)

COC(=O)c1ccc(NC(=O)c2ccccc2)o1
AC50 (Cytochrome P450 2C9): 17.8 µM (inconclusive) | AC50 (Cytochrome P450 1A2): 2.82 µM (inconclusive)

COc1ccc(Nc2cc(C(=O)NCCCN3CCN(C)CC3)c3ccccc3n2)cc1
AC50 (Cytochrome P450 2C9): 14.1 µM (inconclusive) | AC50 (Cytochrome P450 1A2): 10 µM (inconclusive)

COc1ccc(N(CC(=O)NCCSc2ccccn2)S(=O)(=O)c2ccc(C)cc2)cc1OC
EC50 [4]: > 53 µM (inactive) | IC50 [5]: > 47.1 µM (inactive)

COc1ccc(C(=O)NCCS(=O)(=O)N(C)C2CCCCC2)cc1
EC50 [4]: > 53 µM (inactive) | IC50 [5]: > 47.1 µM (inactive)

CCOc1ccccc1NC(=O)C1=C(C)NC(=O)NC1c1cccc(OC)c1OC (stereo not drawn)
AC50 (Cytochrome P450 2C9): 25.1 µM (inconclusive)

COCC(=O)N(C)[C@H]1C[C@H]2c3cc(N4CCN(C)CC4)ccc3CCN2C(=O)[C@H]1[C@H](C)O
EC50 [4]: > 53 µM (inactive) | IC50 [5]: > 47.1 µM (inactive)

O=C(COc1ccccc1)NCc1ccco1
EC50 [4]: > 53 µM (inactive) | IC50 [5]: > 47.1 µM (inactive)

COc1cccc(/N=C/C2=C(O)OC3(CCCCC3)OC2=O)c1
EC50 [3]: > 260 µM (inconclusive)
